Data: patent US20090325959A1 (priority 2008, published 2009)
pKi: −log10 of the molar value. Read-outs that look alike come from different tables or passages of the source.

Assays:
ROCK1 = target: T1, ROCK1 (Homo sapiens, UniProt Q13464); assay: Rho kinase inhibition assay (IMAP fluorescence polarization), ROCK1; format: biochemical;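 further: kinase reaction run 60 min at room temperature, then phosphorylated substrate captured on IMAP beads for 30 min, with fluorescence polarization read in mP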
T1 construct: purchased Upstate/Chemicon 14-601
T1 sequence (Q13464 17-535 limits assumed): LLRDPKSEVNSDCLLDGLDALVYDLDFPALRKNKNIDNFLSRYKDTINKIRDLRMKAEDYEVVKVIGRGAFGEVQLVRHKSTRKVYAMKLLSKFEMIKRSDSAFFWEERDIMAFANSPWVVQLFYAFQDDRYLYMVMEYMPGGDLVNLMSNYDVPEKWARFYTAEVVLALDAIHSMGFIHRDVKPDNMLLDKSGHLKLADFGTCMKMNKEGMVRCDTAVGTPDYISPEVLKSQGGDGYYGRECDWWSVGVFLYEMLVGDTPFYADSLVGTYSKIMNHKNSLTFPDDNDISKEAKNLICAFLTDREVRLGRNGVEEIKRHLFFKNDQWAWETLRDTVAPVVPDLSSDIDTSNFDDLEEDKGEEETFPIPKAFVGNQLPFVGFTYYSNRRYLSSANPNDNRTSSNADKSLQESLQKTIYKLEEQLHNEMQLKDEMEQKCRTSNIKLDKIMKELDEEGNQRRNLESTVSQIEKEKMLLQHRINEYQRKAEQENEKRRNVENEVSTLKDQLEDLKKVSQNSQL
Experimental: (§1) Following the pre-incubation, 10 μM ATP was added to initiate the reaction. After 60 minutes at room temperature, Molecular Devices IMAP™ binding solution was added to bind phosphorylated substrate. After 30 minutes of incubation in the presence of the IMAP™ beads, the fluorescence polarization was read and the ratio was reported as mP. IC50 values for compounds and EC50 values for ATP were calculated using the Prism software from Graphpad.

ROCK2 = target: T2, ROCK2 (Homo sapiens, UniProt O75116); assay: Rho kinase inhibition assay (IMAP fluorescence polarization), ROCK2; format: biochemical;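 further: kinase reaction started with 10 µM ATP and run 60 min at room temperature, then phosphorylated substrate captured on IMAP beads for 30 min and fluorescence polarization read in mP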
T2 construct: purchased Upstate/Chemicon 14-451
T2 sequence (O75116 11-552 limits assumed): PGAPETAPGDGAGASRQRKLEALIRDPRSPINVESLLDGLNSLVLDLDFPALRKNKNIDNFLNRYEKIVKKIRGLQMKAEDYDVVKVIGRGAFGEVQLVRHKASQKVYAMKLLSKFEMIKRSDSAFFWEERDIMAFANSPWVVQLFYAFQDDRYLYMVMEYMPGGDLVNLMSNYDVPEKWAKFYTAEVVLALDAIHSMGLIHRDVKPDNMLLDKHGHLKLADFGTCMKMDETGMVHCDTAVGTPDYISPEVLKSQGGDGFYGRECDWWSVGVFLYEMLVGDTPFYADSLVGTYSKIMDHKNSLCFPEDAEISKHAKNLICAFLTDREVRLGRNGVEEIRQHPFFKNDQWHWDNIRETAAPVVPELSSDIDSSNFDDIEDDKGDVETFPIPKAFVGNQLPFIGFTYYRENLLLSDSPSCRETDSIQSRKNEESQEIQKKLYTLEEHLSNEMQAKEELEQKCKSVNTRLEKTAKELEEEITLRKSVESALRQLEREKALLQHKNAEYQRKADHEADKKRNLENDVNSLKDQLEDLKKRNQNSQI
Experimental: as §1

Akt3 human enzyme = target: T3, Akt3 human enzyme (Homo sapiens, UniProt Q9Y243); assay: Akt3 inhibition assay (IMAP FP); format: biochemical;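 further: kinase reaction run 60 min at room temperature after 30 µM ATP start, phosphorylated substrate captured on IMAP beads and read as fluorescence polarization (mP)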
T3 construct: purchased Upstate Chemicon 14-502
T3 sequence (Q9Y243 whole entry): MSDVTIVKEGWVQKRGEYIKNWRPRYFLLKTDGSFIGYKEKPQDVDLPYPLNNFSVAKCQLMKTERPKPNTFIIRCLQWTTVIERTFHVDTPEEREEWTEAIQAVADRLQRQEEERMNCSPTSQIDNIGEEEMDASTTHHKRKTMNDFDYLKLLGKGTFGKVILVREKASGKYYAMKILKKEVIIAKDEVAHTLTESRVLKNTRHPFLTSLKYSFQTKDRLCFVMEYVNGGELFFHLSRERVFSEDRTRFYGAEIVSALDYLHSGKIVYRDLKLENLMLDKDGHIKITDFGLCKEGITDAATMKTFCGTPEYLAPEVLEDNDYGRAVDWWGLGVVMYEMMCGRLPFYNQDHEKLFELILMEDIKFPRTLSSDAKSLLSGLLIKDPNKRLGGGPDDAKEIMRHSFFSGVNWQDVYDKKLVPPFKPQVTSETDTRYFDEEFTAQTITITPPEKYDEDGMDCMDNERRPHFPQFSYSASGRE
Experimental: (§2) Inhibition of Akt3 and p70S6K activity was determined using the IMAP™ FP Progressive Binding Kit (Molecular Devices product number R8127). […] Following the pre-incubation, 30 μM ATP was added to initiate the reaction. After 60 minutes at RT, Molecular Devices IMAP™ binding solution was added to bind phosphorylated substrate. After 30 minutes of incubation in the presence of the IMAP™ beads the fluorescence polarization was read and the ratio was reported as mP. IC50 results were calculated using the Prism software from Graphpad. The Ki values were determined according to the following formula: Ki=IC50/(1+([ATP Challenge]/EC50 ATP)).

p70S6K human enzyme = target: T4, p70S6K human enzyme (Homo sapiens, UniProt P23443, T412E); assay: p70S6K inhibition assay (IMAP FP); format: biochemical;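 further: kinase reaction run at room temperature, phosphorylated substrate captured on IMAP beads and read as fluorescence polarization in mP, IC50 then converted to Ki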
T4 construct: purchased Upstate Chemicon 14-486
T4 sequence (P23443 1-421 T412E limits assumed): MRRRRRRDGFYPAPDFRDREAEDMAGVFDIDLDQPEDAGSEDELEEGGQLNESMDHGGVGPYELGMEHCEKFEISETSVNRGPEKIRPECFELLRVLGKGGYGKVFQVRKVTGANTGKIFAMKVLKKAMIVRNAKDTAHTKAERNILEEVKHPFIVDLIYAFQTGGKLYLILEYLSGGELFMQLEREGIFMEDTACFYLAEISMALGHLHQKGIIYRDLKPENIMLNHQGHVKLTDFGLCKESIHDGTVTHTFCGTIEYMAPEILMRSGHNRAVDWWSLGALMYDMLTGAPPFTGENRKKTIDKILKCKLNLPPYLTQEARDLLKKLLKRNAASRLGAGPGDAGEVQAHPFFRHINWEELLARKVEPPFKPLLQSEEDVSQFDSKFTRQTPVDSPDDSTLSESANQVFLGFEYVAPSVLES
Experimental: as §2

[1] = Compound plasma concentrations in unsensitized mice at 15 min post administration; format: in vivo; conditions: mouse, 15 μmol/kg; mean compound plasma concentration in mice at 15 minutes post oral administration; read-out: Mouse Oral PK
[2] = 10 μM ATP, read-out: ROCK2 Ki, Avg
[3] = 30 μM ATP, Ki=IC50/(1+([ATP Challenge]/EC50 ATP)), read-out: Akt3 Ki, Avg
[4] = 30 μM ATP, Ki=IC50/(1+([ATP Challenge]/EC50 ATP)), read-out: p70S6K Ki, Avg
[5] = average Ki, read-out: p70S6K Ki

Compound	pKi (ROCK1; Avg, 10 μM ATP)	pKi (ROCK1; average Ki)	pKi (ROCK2; [2])	pKi (ROCK2; average Ki, read-out: ROCK2 Ki)	pKi (Akt3 human enzyme; [3])	pKi (Akt3 human enzyme; average Ki, read-out: Akt3 Ki)	pKi (p70S6K human enzyme; [4])	pKi (p70S6K human enzyme; [5])	concentration at 15 min [1] [nM]
Cc1ccc(CN2CCC[C@H](Nc3ccc4[nH]ncc4c3)C2)cc1NS(C)(=O)=O [Compound 1.233, (S)-N-(5-((3-(1H-indazol-5-ylamino)piperidin-1-yl)methyl)-2-methylphenyl)methanesulfonamide]	7.33	7.33	8.89	8.89	5.58	5.58	5.70	5.70	41
O=C(COc1cccc(CN2CCC[C@@H](Nc3ccc4[nH]ncc4c3)C2)c1)Nc1cccnc1 [Compound 1.126, (R)-2-(3-((3-(1H-indazol-5-ylamino)piperidin-1-yl)methyl)phenoxy)-N-(pyridin-3-yl)acetamide]	7.12	7.12	7.76	7.76					0
CCS(=O)(=O)Nc1cc(CN2CCC[C@@H](Nc3ccc4[nH]ncc4c3)C2)ccc1C [Compound 1.259, (R)-N-(5-((3-(1H-indazol-5-ylamino)piperidin-1-yl)methyl)-2-methylphenyl)ethanesulfonamide]	7.71	7.71	8.68	8.68					264
NC(=O)COc1cccc(CN2CCC[C@H](Nc3ccc4[nH]ncc4c3)C2)c1 [Compound 1.195]	6.71	6.71	7.99	7.99	4.66	4.66	5.56	5.56	108
c1cc(N[C@@H]2CCN(Cc3ccc4[nH]ccc4c3)C2)c2ccncc2c1 [Compound 2.065, (R)-N-(1-((1H-indol-5-yl)methyl)pyrrolidin-3-yl)isoquinolin-5-amine]	8.39	8.39	8.74	8.74					236
OCc1ccc(CN2CCC[C@H](Nc3ccc4[nH]ncc4c3)C2)cc1 [Compound 1.223, (S)-(4-((3-(1H-indazol-5-ylamino)piperidin-1-yl)methyl)phenyl)methanol]	6.62	6.62	7.80	7.80	4.95	4.95	5.51	5.51	13
NC(=O)c1cccc(CN2CCC[C@H](Nc3ccc4[nH]ncc4c3)C2)c1 [Compound 1.219, (8)-3-((3-(1H-indazol-5-ylamino)piperidin-1-yl)methyl)benzamide]	6.46	6.46	7.81	7.81	4.42	4.42	5.30	5.30	1680
CS(=O)(=O)Cc1cccc(CN2CCC[C@H](Nc3ccc4[nH]ncc4c3)C2)c1 [Compound 1.157, (S)-N-(1-(3-(methylsulfonylmethyl)benzyl)piperidin-3-yl)-1H-indazol-5-amine]	6.58	6.58	8.06	8.06	4.53	4.53	5.06	5.06	357
CS(=O)(=O)Nc1cc(CN2CCC[C@@H](Nc3ccc4[nH]ncc4c3)C2)ccc1Cl [Compound 1.212, (R)-N-(5-((3-(1H-indazol-5-ylamino)piperidin-1-yl)methyl)-2-chlorophenyl)methanesulfonamide]	7.35	7.35	8.41	8.41	6.41	6.41	6.05	6.05	863
Cc1ccc(CN2CCC[C@H](Nc3ccc4[nH]ncc4c3)C2)c(C)c1 [Compound 1.155, (S)-N-(1-(2,4-dimethylbenzyl)piperidin-3-yl)-1Hindazol-5-amine]	7.34	7.34	8.15	8.15	5.25	5.25	5.76	5.76	32
c1cc(N[C@@H]2CCN(Cc3ccc4cc[nH]c4c3)C2)c2ccncc2c1 [Compound 2.057, (R)-N-(1-((1H-indol-6-yl)methyl)pyrrolidin-3-yl)isoquinolin-5-amine]	8.21	8.21	8.43	8.43					431
C#Cc1cccc(CN2CCC[C@@H](Nc3ccc4[nH]ncc4c3)C2)c1 [Compound 1.193, (R)-N-(1-(3-ethynylbenzyl)piperidin-3-yl)-1H-indazol-5-amine]	7.19	7.19	7.83	7.83					55
CC(C)(C)OC(=O)NCc1cccc(CN2CCC[C@H](Nc3ccc4[nH]ncc4c3)C2)c1 [Compound 1.176, (S)-tert-butyl 3-((3-(1H-indazol-5-ylamino)piperidin-1-yl)methyl)benzylcarbamate]	6.50	6.50			4.68	4.68	5.06	5.06	89
Cc1ccc(S(=O)(=O)Nc2cc(CN3CCC[C@@H](Nc4ccc5[nH]ncc5c4)C3)ccc2C)cc1 [Compound 1.260, (R)-N-(5-((3-(1H-indazol-5-ylamino)piperidin-1-yl)methyl)-2-methylphenyl)-4-methylbenzenesulfonamide]	7.15	7.15	8.15	8.15					291
Oc1cccc(CN2CC[C@@H](Nc3cccc4cnccc34)C2)c1 [Compound 2.061, (R)-3-((3-(isoquinolin-5-ylamino)pyrrolidin-1-yl)methyl)phenol]	7.98	7.98	8.74	8.74					73
c1cc2c(cc1CN1CCC[C@@H](Nc3ccc4[nH]ncc4c3)C1)CCO2 [Compound 1.246, (R)-N-(1-((2,3-dihydrobenzofuran-5-yl)methyl)piperidin-3-yl)-1H-indazol-5-amine]	7.04		7.95		5.96		5.73		
Brc1ccc(CN2CCC[C@H](Nc3ccc4[nH]ncc4c3)C2)cc1 [Compound 1.142, (S)-N-(1-(4-bromobenzyl)piperidin-3-yl)-1H-indazoi-5-amine]	6.98		7.92		5.08		5.60		
Cc1ccc(CN2CCC[C@H](Nc3ccc4[nH]ncc4c3)C2)cc1 [Compound 1.078, (S)-N-(1-(4-methylbenzyl)piperidin-3-yl)-1H-indazol-5-amine]	7.44		8.44		5.49		5.78		
c1cc(C2CC2)ccc1CN1CCC[C@H](Nc2ccc3[nH]ncc3c2)C1 [Compound 1.185, (S)-N-(1-(4-cyclopropylbenzyl)piperidin-3-yl)-1H-indazol-5-amine]	7.09		7.90		5.38		5.94		
C=Cc1ccc(CN2CCC[C@H](Nc3ccc4[nH]ncc4c3)C2)cc1 [Compound 1.229, (S)-N-(1-(4-vinylbenzyl)piperidin-3-yl)-1H-indazol-5-amine]	6.92		7.74		4.61		5.50		
